# Test results as given in patent US20190211020A1 (Agency for Science, Technology and Research, priority 2012, published 2019).
# Read-outs that look alike come from different tables or passages of the source.
# How the values were obtained:
# [1] = tested on: D1.1 (acute T cell leukemia); test: Cell cytotoxicity assay (CellTiter-Glo), D1.1; format: cell-based; details: T-cell, cell viability
# Description: (§1) Cancer cell lines, MV-4-11 (leukemia), P116.c139 (acute T cell leukemia) and D1.1 (acute T cell leukemia), were purchased from ATCC and cultured according to supplier's recommendations. K562 cells (myelogenous leukemia) over-expressing eIF4E, were also used for the cytotoxicity assay. For cells treated for 48 hours, 5000 cells were seeded in 70 μl of growth medium in black, flat-bottom 96-well plate. For cells treated for six days, 1000 cells were seeded in 70 μl of growth medium in black, flat-bottom 96-well plate. […] 50 μl of the diluted compounds was added to the cells and incubated at 37° C. in 5% CO2. After 48 hours or six days treatment, cell viability was determined by CellTiter-Glo Luminescent Cell Viability Assay (Promega, Madison, Wis.). 120 μl of the reagent was added to the cells and luminescence was measured using Tecan Safire Reader. Data was analysed with Graphpad Prism software and the figures represented indicate the half maximal inhibitory concentration (IC50). Error bars denote standard deviation (SD).
# [2] = tested on: K562 cells (myelogenous leukemia) over-expressing eIF4E; test: Cell cytotoxicity assay (CellTiter-Glo), K562; format: cell-based; details: for IC50: Homo sapiens, cell viability
# Description: as §1
# [3] = tested on: MV-4-11, P116.c139 and D1.1 cell lines; test: Cell cytotoxicity assay, the three test cell lines taken together; format: cell-based; details: Homo sapiens, MV4-11; regardless of the treatment duration (48 hours or 6 days)
# Description: as §1
# [4] = tested on: P116.c139 (acute T cell leukemia); test: Cell cytotoxicity assay (CellTiter-Glo), P116.c139; format: cell-based; details: T-cell, cell viability
# Description: as §1
# Nlgn3 knock-out mice = test: Ultrasonic vocalization assay in Nlgn3 knock-out mice (autism model); format: in vivo, mouse; details: 50 microgram/kg intraperitoneal, 30 h and 5 h before testing
# Description: (§2) For biochemical analyses mice were sacrificed by CO2 inhalation, the cerebellum dissected and rapidly placed in a vibratome chamber and sectioned at 300 μm in cold oxygenated aCSF (in mM: 125 NaCl, 2.5 KCl, 1 MgCl2, 2 CaCl2, 1.25 NaH2PO4, 20 Glucose, 26 NaHCO3, 95% O2/5% CO2). Slices obtained were maintained at 33° C. in oxygenated aCSF and treated with 40 μM CGP57380 or 50 nM ETC7168 for 45 mins and tissues were subsequently snap frozen in liquid nitrogen. Tissues were lysed in 25 mM Tris-HCl, 150 mM NaCl, 1% Triton, 0.2% SDS, 5 mM EDTA, 2 mM DTT, 1 mM NaF, 1 mM Na3VO4 containing protease inhibitor cocktail. The soluble fractions were analyzed by immunoblotting with primary antibodies for 24 hrs at 4° C. followed by detection with secondary antibodies for enhanced chemoluminescent detection. […] Behavioral testing was performed using a well-accepted test for autism that consists of quantitative analysis of ultrasonic vocalizations emitted by male mice exposed to females in estrous^75. […] Prior to testing, the estrous cycle of each female mouse was assessed and only females in estrous were kept for testing. […] Subsequently a female in estrous was introduced in the arena, and ultrasonic vocalizations were recorded for 3 min using the Avisoft system (Avisoft Bioacoustics) with a frequency bandwidth of 30 kHz to 100 kHz. The number and length of ultrasonic vocalizations were quantified. […]
# [5] = tested on: eIF4G levels in brain sections from Nlgn3 knock-out mice; test: Immunoblot of eIF4G in brain slices of Nlgn3 knock-out mice; design: species or system mouse; details: 40 μM CGP57380 or 50 nM ETC7168
# Description: For biochemical analyses mice were sacrificed by CO2 inhalation, the cerebellum dissected and rapidly placed in a vibratome chamber and sectioned at 300 μm in cold oxygenated aCSF (in mM: 125 NaCl, 2.5 KCl, 1 MgCl2, 2 CaCl2, 1.25 NaH2PO4, 20 Glucose, 26 NaHCO3, 95% O2/5% CO2). Slices obtained were maintained at 33° C. in oxygenated aCSF and treated with 40 μM CGP57380 or 50 nM ETC7168 for 45 mins and tissues were subsequently snap frozen in liquid nitrogen. Tissues were lysed in 25 mM Tris-HCl, 150 mM NaCl, 1% Triton, 0.2% SDS, 5 mM EDTA, 2 mM DTT, 1 mM NaF, 1 mM Na3VO4 containing protease inhibitor cocktail. The soluble fractions were analyzed by immunoblotting with primary antibodies for 24 hrs at 4° C. followed by detection with secondary antibodies for enhanced chemoluminescent detection. Impact of MNK inhibitors on autism-related behavior was tested in a knock-out mouse model for autism. Nlgn3 knock-out mouse model a human mutation identified in patients with autism^73-74. Compounds were applied in DMSO using intraperitoneal injection in adult male mice (2-4 months of age). Two injections were performed, the first 30 h and a second one 5 h before testing. Behavioral testing was performed using a well-accepted test for autism that consists of quantitative analysis of ultrasonic vocalizations emitted by male mice exposed to females in estrous^75. The apparatus consisted of an arena (40 cm×20 cm) surrounded by 30-cm-high walls made of grey plastic and equipped with a microphone and a video camera. Prior to testing, the estrous cycle of each female mouse was assessed and only females in estrous were kept for testing. Male mice were acclimatized for 3 min in the chamber. Subsequently a female in estrous was introduced in the arena, and ultrasonic vocalizations were recorded for 3 min using the Avisoft system (Avisoft Bioacoustics) with a frequency bandwidth of 30 kHz to 100 kHz. The number and length of ultrasonic vocalizations were quantified. All animal experiments were approved by the cantonal veterinary office Basel-Stadt, Switzerland.
# [6] = tested on: nuclear active beta-catenin in BC-CML primary cells; test: Immunofluorescence of nuclear active beta-catenin in BC-CML primary cells; format: cell-based, human
# Source text: Cord Blood (CB) samples were purchased from the Singapore Cord Blood bank. CML samples were the Singapore General Hospital after signed informed consent under local IRB-approved procedures. MNCs were obtained using Ficoll separation, and CD34^+ cells selected by immunomagnetic beads (Miltenyi Biotech, Germany).
# Cells (1×10^5) were cytospun onto glass slides, fixed with 4% paraformaldehye, and stained with mouse monoclonal antibodies against activated β-catenin (clone 8E7, Millipore, UK), or rabbit monoclonal antibodies against phospho-eIF4E S209 (EP2151Y, Abcam, UK). Slides were then stained with either PE-conjugated anti-mouse or FITC-conjugated anti-rabbit antibodies. Images were obtained with the use of a fluorescence microscope (Olympus IX71S1F3) at 40× magnification.
# [7] = tested on: eIF4E phosphorylation in cerebellar neurons in brain sections; test: Immunoblot of phospho-eIF4E in mouse cerebellar brain slices; details: 40 μM CGP57380 or 50 nM ETC7168 for 45 mins
# Description: as §2
# MV-4-11 (leukemia) = test: Cell cytotoxicity assay (CellTiter-Glo), MV-4-11; format: cell-based; details: Homo sapiens, cell viability
# Description: as §1
compound,measurement,setting,value
"N#Cc1ccc(-c2cnc3ccc(-c4ccc(C(=O)N5CCOCC5)cc4)nn23)cc1 [Example 62, 4-(6-(4-(morpholine-4-carbonyl)phenyl)imidazo[1,2-b]pyridazin-3-yl)benzonitrile]",IC50,"[1]; 144 h, 6 days, read-out: IC50 after 6 days of treatment, D1.1",1700 nM
same,IC50,"[1]; 48 hours, read-out: IC50 after 48 hours of treatment, D1.1",1600 nM
same,IC50,"[2]; K562, 144 h, 6 days, read-out: IC50 after 6 days of treatment, K562",3100 nM
same,IC50,"[2]; K562, 48 hours, read-out: IC50 after 48 hours of treatment, K562",7500 nM
same,"change of IC50 when treatment duration was extended from 48 hours to 6 days, K562",[2]; K562 cells over-expressing eIF4E,reduced by more than half
same,IC50,[3],≤ 2000 nM
same,IC50,"[4]; 144 h, 6 days, read-out: IC50 after 6 days of treatment, P116.c139",300 nM
same,IC50,"[4]; 48 hours, read-out: IC50 after 48 hours of treatment, P116.c139",800 nM
same,ultrasonic vocalizations of Nlgn3 knock-out male mice (autism-related behavior),Nlgn3 knock-out mice,improves autism-relevant behavior
same,ultrasonic vocalizations of Nlgn3 knock-out male mice (autism-related behavior),Nlgn3 knock-out mice; listed as ETC7168,robust elevation of ultrasonic vocalizations
same,eIF4G levels in brain sections from Nlgn3 knock-out mice,[5],elevated eIF4G levels
same,eIF4G levels in brain sections from Nlgn3 knock-out mice,[5]; listed as ECT7168,elevation in eIF4G levels
same,"nuclear active beta-catenin in BC-CML primary cells, immunofluorescence",[6],decrease in nuclear beta-catenin accumulation
same,eIF4E phosphorylation in cerebellar brain sections,[7],inhibit eIF4E phosphorylation
same,IC50,"MV-4-11 (leukemia); MV4-11, 144 h, 6 days, read-out: IC50 after 6 days of treatment, MV-4-11",200 nM
same,IC50,"MV-4-11 (leukemia); MV4-11, 48 hours, read-out: IC50 after 48 hours of treatment, MV-4-11",800 nM
